The results in this text go back to ChEMBL document CHEMBL1201862, “PubChem BioAssay data set” (2004).

Molecules are shown by their SMILES.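 Dose response: 5 concentrations. Exposure: 48 h. Format: 96-well plates. Endpoint: linear interpolation; highest concentration if not reached. Abbreviation: GI50, concentration required for 50% inhibition of growth.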 Active and inactive are the calls of the source. No stated cut-off is given here; in the data, active = GI50 up to about 1.1 µM and inactive = higher. Where only a bound is given, the exact number is not on record here.

Among the test systems are U-251; SK-OV-3; CAKI-1; SW-620; ACHN; SNB-75; UACC-257; Hs-578T; K562; NCI-H522; OVCAR-5; SK-MEL-2; SF-539; T47D; UACC-62; PC-3; A498; HT-29; MOLT-4; 786-0.
What all share (assay): NCI tumour cell line growth inhibition, 48 h

Turning to `CCOC(=O)/C=C(/C(=O)OCC)n1ccc(=O)[nH]c1=O`, the GI50 in the experiment on U-251 is 13.5 µM (inactive); in the experiment on SK-OV-3, 18.7 µM (inactive); in the experiment on CAKI-1, 0.938 µM (active); with SW-620, 1.86 µM (inactive); with ACHN, 3.99 µM (inactive); with SNB-75, 14 µM (inactive). Further, the GI50 with UACC-257 was 12.6 µM (inactive); with Hs-578T it was 17.9 µM (inactive); with K562 it was 2.23 µM (inactive); in the experiment with NCI-H522 it was 0.726 µM (active); in the experiment with OVCAR-5 it was 5.93 µM (inactive); in the experiment with SK-MEL-2 it was 15.8 µM (inactive). The GI50 in the experiment with SF-539 is 18.9 µM (inactive); in the experiment on T47D it was 3.4 µM (inactive); in the experiment with UACC-62, 11.8 µM (inactive); in the experiment on PC-3 it was 13.8 µM (inactive); with A498 it was 20.6 µM (inactive); in the experiment with HT-29 it was 10.9 µM (inactive). In addition, the results for the GI50 in the experiment with MOLT-4 and with 786-0 were 2.25 µM (inactive) and 3.36 µM (inactive), respectively.

As for `O=C1C=C(Cl)C(=O)C(c2ccc(Cl)cc2)=C1`, the GI50 in the experiment on U-251 is 15.2 µM (inactive); with SK-OV-3, 47.3 µM (inactive); in the experiment on CAKI-1 it was 17.6 µM (inactive); in the experiment with SW-620 it was 25.5 µM (inactive); in the experiment on ACHN it was 16.7 µM (inactive); in the experiment with SNB-75, 22.5 µM (inactive). The GI50 in the experiment on UACC-257 is 18.6 µM (inactive); with Hs-578T, 26.5 µM (inactive); in the experiment with K562 it was 4.19 µM (inactive); with NCI-H522 it was 5.05 µM (inactive); with OVCAR-5, 17 µM (inactive); with SK-MEL-2, 18.6 µM (inactive). The GI50 in the experiment on SF-539 is 16.9 µM (inactive); in the experiment with T47D, 13.7 µM (inactive); with UACC-62, 17.4 µM (inactive); with PC-3 it was 15.3 µM (inactive); in the experiment on A498, 23.8 µM (inactive); with HT-29, 23.7 µM (inactive). In addition, the values for the GI50 in the experiment with MOLT-4 and with 786-0 were 4.03 µM (inactive) and 22.1 µM (inactive), respectively.

With `NC(=S)N/N=C/c1c[nH]c2ccccc12`, the GI50 is > 100 µM (inactive) in the experiment with U-251; > 100 µM (inactive) in the experiment on SK-OV-3; > 100 µM (inactive) with CAKI-1; > 100 µM (inactive) with SW-620; > 100 µM (inactive) in the experiment with ACHN; 41.9 µM (inactive) with SNB-75. Moreover, the GI50 in the experiment on UACC-257 is > 100 µM (inactive); in the experiment on Hs-578T, > 100 µM (inactive); with K562, > 100 µM (inactive); in the experiment with NCI-H522 it was 52.5 µM (inactive); in the experiment on OVCAR-5, > 100 µM (inactive); with SK-MEL-2, > 100 µM (inactive). In addition, the GI50 is > 100 µM (inactive) with SF-539; 99.3 µM (inactive) in the experiment on T47D; > 100 µM (inactive) in the experiment with UACC-62; > 100 µM (inactive) with PC-3; > 100 µM (inactive) with A498; > 100 µM (inactive) with HT-29. In addition, the GI50 was 12.3 µM (inactive) with MOLT-4 and > 100 µM (inactive) with 786-0.

For `C/C(=N\NC(=N)N)C(CN(C)C)C(c1ccccc1)c1c(O)c2ccccc2oc1=O` (stereo not given), the GI50 was > 100 µM (inactive) in the experiment on U-251; > 100 µM (inactive) in the experiment on SK-OV-3; > 100 µM (inactive) with CAKI-1; > 100 µM (inactive) with SW-620; > 100 µM (inactive) in the experiment with ACHN; 98.4 µM (inactive) in the experiment with SNB-75. In addition, the GI50 in the experiment with UACC-257, in the experiment on Hs-578T, in the experiment on K562, with NCI-H522, in the experiment with OVCAR-5 and in the experiment with SK-MEL-2 was > 100 µM (inactive) throughout. Further, the GI50 is > 100 µM (inactive) in the experiment with SF-539; 4.62 µM (inactive) in the experiment on T47D; > 47.6 µM (inactive) in the experiment with UACC-62; > 100 µM (inactive) in the experiment on PC-3; > 100 µM (inactive) in the experiment with A498; > 100 µM (inactive) in the experiment on HT-29. Moreover, the GI50 in the experiment with MOLT-4 and in the experiment with 786-0 was > 100 µM (inactive) each time.

On to `C=C(CN(C)C)C1(c2ccccc2)CC2(CCCC2)C(=O)O1` (stereo not given), for which the GI50 with U-251 was > 100 µM (inactive); in the experiment with SK-OV-3 it was > 100 µM (inactive); in the experiment with CAKI-1, > 100 µM (inactive); in the experiment on SW-620, > 100 µM (inactive); in the experiment on ACHN, 92.5 µM (inactive); in the experiment with SNB-75, > 100 µM (inactive). For the same molecule, the GI50 with UACC-257 was 49.2 µM (inactive); with Hs-578T, > 100 µM (inactive); in the experiment with K562 it was 30.2 µM (inactive); in the experiment with NCI-H522, 20.9 µM (inactive); with OVCAR-5, > 100 µM (inactive); in the experiment on SK-MEL-2 it was > 100 µM (inactive). The GI50 with SF-539 was > 100 µM (inactive); in the experiment on T47D, > 100 µM (inactive); in the experiment on UACC-62, > 100 µM (inactive); with PC-3, 79.6 µM (inactive); in the experiment with A498 it was > 100 µM (inactive); in the experiment with HT-29, 24.2 µM (inactive). The GI50 in the experiment on MOLT-4 was 24.9 µM (inactive); in the experiment with 786-0, 66.5 µM (inactive).

Turning to `CN1CCc2c(sc3ncn(N)c(=N)c23)C1`, the GI50 in the experiment on U-251, in the experiment with SK-OV-3, in the experiment on CAKI-1, in the experiment on SW-620, in the experiment with ACHN and in the experiment with SNB-75 was > 100 µM (inactive) each time. For the same molecule, the GI50 is > 100 µM (inactive) in the experiment on UACC-257; > 100 µM (inactive) with Hs-578T; > 100 µM (inactive) with K562; 45.7 µM (inactive) in the experiment on NCI-H522; > 100 µM (inactive) in the experiment on OVCAR-5; 61.2 µM (inactive) in the experiment with SK-MEL-2. Also, the GI50 in the experiment on SF-539, in the experiment with T47D, in the experiment with UACC-62, in the experiment on PC-3, in the experiment with A498 and in the experiment with HT-29 was > 100 µM (inactive) throughout. For the same molecule, the GI50 in the experiment with MOLT-4 and in the experiment on 786-0 was > 100 µM (inactive) throughout.

Consider `CN(C)c1nc(N)nc(CS)n1`, for which the GI50 is 89.5 µM (inactive) with U-251; > 100 µM (inactive) in the experiment on SK-OV-3; > 100 µM (inactive) in the experiment on CAKI-1; > 100 µM (inactive) with SW-620; > 100 µM (inactive) with ACHN; > 100 µM (inactive) in the experiment on SNB-75. Further, the GI50 with UACC-257 is > 100 µM (inactive); in the experiment on Hs-578T, > 100 µM (inactive); in the experiment on K562 it was 29.9 µM (inactive); in the experiment with NCI-H522, > 100 µM (inactive); in the experiment on OVCAR-5, > 100 µM (inactive); in the experiment with SK-MEL-2, 36.2 µM (inactive). For the same molecule, the GI50 in the experiment on SF-539 is > 100 µM (inactive); in the experiment on T47D it was > 100 µM (inactive); with UACC-62, 61.4 µM (inactive); with PC-3 it was 54.3 µM (inactive); in the experiment on A498 it was > 100 µM (inactive); in the experiment on HT-29, > 100 µM (inactive). For the same molecule, the GI50 with MOLT-4 was 50 µM (inactive); in the experiment on 786-0, > 100 µM (inactive).

`COc1ccc(C2CC(c3ccc4ccccc4c3O)=NN2)cc1OC` (stereo not given): the GI50 in the experiment on U-251 was 44.1 µM (inactive); in the experiment on SK-OV-3 it was > 100 µM (inactive); with CAKI-1 it was > 100 µM (inactive); in the experiment with SW-620, 39.7 µM (inactive); in the experiment with ACHN it was 54.5 µM (inactive); in the experiment on SNB-75, 56.4 µM (inactive). Also, the GI50 with UACC-257 was 57.8 µM (inactive); with Hs-578T it was 76.7 µM (inactive); with K562 it was 21.7 µM (inactive); with NCI-H522, 40.1 µM (inactive); in the experiment on OVCAR-5, > 100 µM (inactive); in the experiment with SK-MEL-2, 52 µM (inactive). Also, the GI50 was 31.3 µM (inactive) with SF-539; 45 µM (inactive) in the experiment with T47D; 42.4 µM (inactive) with UACC-62; 33.9 µM (inactive) in the experiment on PC-3; 52.6 µM (inactive) in the experiment on A498; 47.5 µM (inactive) in the experiment with HT-29. Besides, the GI50 in the experiment with MOLT-4 was 24.7 µM (inactive); in the experiment on 786-0 it was 37.8 µM (inactive).
